Several values for one entry are separate records, joined by “and”; a condition that tells them apart may be missing. Identical values can stand only once.
How the values were obtained:
[1] = iontophoresis, rabbit eyes; cited from earlier work
[2] = INT; cited from earlier work
[3] = tested on: experimentally induced keratitus; details: experimentally induced keratitus in the rabbit eye; cited from earlier work
[4] = INT, drug incorporated in soft agar gel; cited from earlier work
[5] = INT via the cornea, aphakic rabbit eye; cited from earlier work
[6] = Release of gentamicin into the rabbit eye using hydrogel-probe iontophoresis (Example 5)
Experimental: Thirty six healthy rabbits (age 2-3 months, weight 2000 grams) were used. The study conformed with the ARVO Resolution of the Use of Animals in Research. The animals were anesthetized with intramuscular injections of ketamin HCl […] (Park Davis, Morris Plains, N.J.) and xylazine […] (Mobay, Shawnee, Kans.). Iontophoresis was carried out as follows: the distal end of the hydrogel-probe placed in a device as shown in FIG. 2 (diameter of 3 mm and 2 mm thick) was gently applied to the cornea of the rabbit while the anode of the iontophoretic system is inserted into the other end of the device and the cathode is attached to the ear of the animal.
A single concentration of 10 mg/ml gentamicin in the hydrogel-probe (dd) was studied, using two time periods of iontophoresis: long periods (60 seconds) and short periods (10 seconds). Six groups of rabbits, 6 animals per group, were treated with one of the treatments described in the following Table 1.
In group 3, one drop of topical gentamicin (14 mg/ml) was instilled into the eye every 5 minutes for 1 hour. In groups 4 and 5, mock iontophoresis was performed by placing a device containing 10 mg/ml of gentamicin on the cornea for 60 and 10 seconds without switching on the electric current. In group 6 iontophoresis was applied for 2 minutes with the dd containing NaCl 0.9% (instead of gentamicin).
Ten minutes after completion of the iontophoresis, or the control drug delivery technique in each animal, the surface of the eye was washed with 5 ml of NaCl 0.9%. The animals were sacrificed after 15 minutes by injecting an overdose of sodium pentobarbital. The entire cornea was excised with corneal scissors and rinsed again with 5 ml of NaCl 0.9%. The cornea was weighed, minced with a blade and placed into microcentrifuge tubes. To each tube, 0.5 ml 0.01 M phosphate buffered saline (pH 7.2) was added. The tubes were incubated for 18 hours in a water bath heated to 37° C., shaking at 100 oscillations/min. Thereafter the tubes were centrifuged for 10 min. at 2000 rpm. From each tube 125 microliter of the supernatant were assayed for gentamicin concentration using Abbot TDx. The concentration of gentamicin in the cornea was calculated as described before^(5). Gentamicin concentrations are expressed in micrograms per gram of tissue or per milliliter of buffer. 3 way ANOVA test was used for statistical evaluation.

[7] = monkey eye, cited from earlier work
[8] = Effect of current applied and duration of iontophoresis on drug cornea concentration (Experiment 6); format: in vivo, Albino rabbits; design: Gentimicin concentration in the cornea, Average: unit not given here
Description: The purpose of this experiment was to determine the effect of the current applied and duration on the drug cornea concentration.

[9] = Group 2: hydrogel probe 10 mg/ml gentamicin, 0.5 mA, 10 sec iontophoresis
[10] = Group 4: hydrogel probe 10 mg/ml gentamicin, 0.0 mA, 60 sec (mock iontophoresis)

Molecule: Cc1nnc(SCC2=C(C(=O)O)N3C(=O)[C@@H](NC(=O)Cn4cnnn4)[C@H]3SC2)s1 [cefazoline]
- concentrations in the vitreous [1]: high concentrations

Molecule: CC(=O)N1CCN(c2ccc(OCC3COC(Cn4ccnc4)(c4ccc(Cl)cc4Cl)O3)cc2)CC1 (stereo not shown) [ketaconazole]
- penetration into the animals' anterior chamber [2]: increased the penetration

Molecule: CC1(C)S[C@@H]2[C@H](NC(=O)[C@H](C(=O)O)c3ccsc3)C(=O)N2[C@H]1C(=O)O [ticarcillin]
- concentrations in the vitreous [1]: high concentrations

Molecule: NC[C@H]1O[C@H](O[C@H]2[C@H](O)[C@@H](O[C@H]3O[C@H](CO)[C@@H](O)[C@H](N)[C@H]3O)[C@H](N)C[C@@H]2N)[C@H](N)C[C@@H]1O [tobramycin]
- efficacy of INT versus topical administration [3]: more effective than topical administration

Molecule: gentamicin
- concentrations transferred into the rabbit cornea [4]: marked concentrations
- levels of gentamicin in the vitreous [5]: high levels
- Gentamicin concentration in cornea, Average ([6]; Group 1: hydrogel probe 10 mg/ml gentamicin, 0.5 mA, 60 sec iontophoresis): 33.1 ± 9.3 µg/g
- Gentamicin concentration in cornea, Average [6, 9]: 6.5 ± 0.8 µg/g
- Gentamicin concentration in cornea, single eyes (Eye No. 1-6) [6, 9]: 6.27 µg/g and 6.53 µg/g and 4.92 µg/g and 6.70 µg/g and 7.05 µg/g and 7.52 µg/g
- Gentamicin concentration in cornea, Average ([6]; Group 3: eye drops, one drop every 5 minutes for 1 hour, no current): 2.1 ± 1.0 µg/g
- Gentamicin concentration in cornea, Average [6, 10]: 2.6 ± 0.3 µg/g
- Gentamicin concentration in cornea, single eyes (Eye No. 1-6) [6, 10]: 2.01 µg/g and 2.55 µg/g and 2.78 µg/g and 2.89 µg/g and 2.70 µg/g and 2.96 µg/g
- Gentamicin concentration in cornea, Average ([6]; Group 5: hydrogel probe 10 mg/ml gentamicin, 0.0 mA, 10 sec (mock iontophoresis)): 1.1 ± 0.4 µg/g
- concentrations in the vitreous [1]: high concentrations
- concentrations of gentamicin in the vitreous ([7]; transscleral INT using solutions, for several hours): bactericidal concentrations
- damage to the retina, repeated Electro Retino Graphia (ERG) tests ([7]; transscleral INT): did not show damage to the retina
- Gentimicin concentration in the cornea, Average ([8]; Group 1: hydrogel probe 10 mg/ml, 0.0 mA, 60 sec): 2.71 ± 2.0
- Gentimicin concentration in the cornea, Average ([8]; Group 2: hydrogel probe 10 mg/ml, 0.1 mA, 60 sec): 4.5 ± 3.5
- Gentimicin concentration in the cornea, Average ([8]; Group 3: hydrogel probe 10 mg/ml, 0.3 mA, 60 sec): 42.2 ± 27.1
- Gentimicin concentration in the cornea, Average ([8]; Group 4: hydrogel probe 10 mg/ml, 0.6 mA, 60 sec): 88.6 ± 38.6
- Gentimicin concentration in the cornea, Average ([8]; Group 5: hydrogel probe 10 mg/ml, 0.0 mA, 10 sec): 0.0
- Gentimicin concentration in the cornea, Average ([8]; Group 6: hydrogel probe 10 mg/ml, 0.1 mA, 10 sec): 4.0 ± 2.4
- Gentimicin concentration in the cornea, Average ([8]; Group 7: hydrogel probe 10 mg/ml, 0.3 mA, 10 sec): 10.2 ± 4.1
- Gentimicin concentration in the cornea, Average ([8]; Group 8: hydrogel probe 10 mg/ml, 0.6 mA, 10 sec): 22.0 ± 7.8
- Gentimicin concentration in the cornea, Average ([8]; Group 9: subconj. inj., 0.3% w/v, no current): 30 ± 18.6
- gentamicin concentrations in the intraocular fluid ([8]; Groups 3 and 4 (0.3 and 0.6 mA, 60 sec)): High gentamicin concentrations
- increase in drug concentration as compared with SC injections ([8]; current of 0.6 mAmp): 3 times
- increase in drug concentration over a non-current application (diffusion only) ([8]; current of 0.6 mAmp): about 30 times

Reference: patent publication US6442423B1, “Device for iontophoretic administration of drugs” (Hadasit Medical Research Services & Development Limited, priority 1998, dated 2002)
